Earlier results on seven compounds are cited in PubChem BioAssay AID1259409 (Chemical Carcinogenesis Research Information System (CCRIS), 2018).

This data set has as its system rodent chemically induced tumor inhibition, incidence and multiplicity. Description: CCRIS tumor inhibitor studies.

As to `Cc1c(C)c2c(c(C)c1O)CCC(C)(CCCC(C)CCCC(C)CCCC(C)C)O2` (stereo unspecified), the “tumour outcome (control, treated, inhibition, significance)” value runs as follows: (Carcinogen: N-NITROSOMETHYLBENZYLAMINE, 937-40-6, Dose [Inhibitor]: 30, 172 MG/KG IN DIET BEGINNING POST CARCINOGEN TREATMENT AND CONTINUING FOR 22 WK (STUDY DURATION: 25 WK), Route [Inhibitor]: ORAL, Species: MOUSE, Strain/Sex: C57BL/FEMALE, Target Tissue: Type of Lesion: ESOPHAGUS: TUMOR, Dose [Carcinogen]: 0.2 MG/KG IN CORN OIL 3/WK FOR 3 WK, Promoter: ETHANOL, 64-17-5) 10/17 (59%), 6/16 (38%), 36%, not calculated; (Carcinogen: N-NITROSOMETHYLBENZYLAMINE, 937-40-6, Dose [Inhibitor]: 30, 172 MG/KG IN DIET BEGINNING POST CARCINOGEN TREATMENT AND CONTINUING FOR 22 WK (STUDY DURATION: 25 WK), Route [Inhibitor]: ORAL, Species: MOUSE, Strain/Sex: C57BL/FEMALE, Target Tissue: Type of Lesion: ESOPHAGUS: TUMOR, Dose [Carcinogen]: 0.2 MG/KG IN CORN OIL 3/WK FOR 3 WK, Promoter: NONE USED) 6/15 (40%), 3/15 (20%), 50%, not calculated; (Carcinogen: UVB IRRADIATION, Dose [Inhibitor]: 0, 25 MG IN 200 µL ACETONE 3/WK FOR DURATION OF STUDY BEGINNING 3 WK PRIOR TO IRRADIATION (STUDY DURATION: 33 WK), Route [Inhibitor]: DERMAL, Species: MOUSE, Strain/Sex: C3H/HEN/FEMALE, Target Tissue: Type of Lesion: SKIN: TUMOR, Dose [Carcinogen]: 6 J/M2/SEC 30 MIN/D, 5 D/WK FOR 27 WK, Promoter: NONE USED) 81%, 42%, 48%, p=0.0065.
Consider `CC1(C)CC[C@]2(CO)CC[C@]3(C)C(=CC[C@@H]4[C@@]5(C)CC[C@H](O)[C@@](C)(CO)[C@@H]5CC[C@]43C)[C@H]2C1`, for which the “tumour outcome (control, treated, inhibition, significance)” value (Carcinogen: 7,12-DIMETHYLBENZ[A]ANTHRACENE, 57-97-6, Dose [Inhibitor]: 81 NMOL IN 100 µL ACETONE/DMSO (99:1) APPLIED 40 MIN PRIOR TO EACH PROMOTER DOSE (STUDY DURATION: 18 WK), Route [Inhibitor]: DERMAL, Species: MOUSE, Strain/Sex: ICR, Target Tissue: Type of Lesion: SKIN: CARCINOMA, Dose [Carcinogen]: 100 UG ONCE, Promoter: 12-O-TETRADECANOYLPHORBOL-13-ACETATE, 16561-29-8) is on record as 100%, 20%, 80%, not calculated.
For the compound `C[N+](C)(C)CC(=O)O`, where the note is “Carcinogen: ETHIONINE, 13073-35-3, Dose [Inhibitor]: 5.2 MMOL/100 G DIET DAILY FOR 8 MO ADMINISTERED SIMULTANEOUSLY WITH CARCINOGEN FOLLOWED BY 4 MO ON BASAL DIET (STUDY DUR, Route [Inhibitor]: ORAL, Species: RAT, Strain/Sex: WISTAR/MALE, Target Tissue: Type of Lesion: LIVER: CARCINOMA, Dose [Carcinogen]: 0.25% OF DIET DAILY FOR 8 MO, Promoter: NONE USED”, the “tumour outcome (control, treated, inhibition, significance)” value is 8/8 (100%), 1/10 (10%), 90%, not calculated.
As for `S=C=NCc1cc2ccccc2c2ccccc12`, the outcome (Carcinogen: BENZO[A]PYRENE, 50-32-8, Dose [Inhibitor]: 0, 5 UMOL IN ACETONE 4 HR PRIOR TO CARCINOGEN DOSE (STUDY DURATION: 20 WK), Route [Inhibitor]: DERMAL, Species: MOUSE, Strain/Sex: STRAIN-A/FEMALE, Target Tissue: Type of Lesion: SKIN: TUMOR, Dose [Carcinogen]: 0.1 UMOL IN ACETONE ONCE, Promoter: 12-O-TETRADECANOYLPHORBOL-13-ACETATE, 16561-29-8) was 85%, 95%, -12%, not significant at 15 wk; 95%, 95%, 0%, not significant at 20 wk.
`CC[C@H](C)/C=C/C1=CC2=C(Cl)C(=O)[C@@]3(C)OC(=O)C(C(=O)[C@@H](C)[C@@H](C)O)=C3C2=CO1`: the “tumour outcome (control, treated, inhibition, significance)” value (Carcinogen: 7,12-DIMETHYLBENZ[A]ANTHRACENE, 57-97-6, Dose [Inhibitor]: 0, 2 UMOL 2/WK FOR 18 WK APPLIED 30 MIN PRIOR TO EACH PROMOTER DOSE BEGINNING 1 WK POST CARCINOGEN DOSE (STUDY DURATION:, Route [Inhibitor]: DERMAL, Species: MOUSE, Strain/Sex: ICR/FEMALE, Target Tissue: Type of Lesion: SKIN: PAPILLOMA, Dose [Carcinogen]: 50 UG ONCE, Promoter: 12-O-TETRADECANOYLPHORBOL-13-ACETATE, 16561-29-8) is on record as 100%, 33%, 67%, not calculated.
Regarding `CSS(C)(=O)=O`, the “tumour outcome (control, treated, inhibition, significance)” value was 4/30 (13%), 1/24 (4%), 69%, not significant (Carcinogen: AZOXYMETHANE, 25843-45-2, Dose [Inhibitor]: 0, 20 PPM IN DIET FOR 32 WK BEGINNING 1 WK POST CARCINOGEN TREATMENT (STUDY DURATION: 36 WK), Route [Inhibitor]: ORAL, Species: RAT, Strain/Sex: (30,30)/(30,24), Target Tissue: Type of Lesion: SMALL INTESTINE: ADENOMA OR ADENOCARCINOMA, Dose [Carcinogen]: 15 MG/KG BW 1/WK FOR 3 WK, Promoter: NONE USED); 17/30 (57%), 9/24 (38%), 33%, not significant (Carcinogen: AZOXYMETHANE, 25843-45-2, Dose [Inhibitor]: 0, 20 PPM IN DIET FOR 32 WK BEGINNING 1 WK POST CARCINOGEN TREATMENT (STUDY DURATION: 36 WK), Route [Inhibitor]: ORAL, Species: RAT, Strain/Sex: F344/MALE, Target Tissue: Type of Lesion: LARGE INTESTINE: ADENOMA OR ADENOCARCINOMA, Dose [Carcinogen]: 15 MG/KG BW 1/WK FOR 3 WK, Promoter: NONE USED); 17/30 (57%), 2/28 (7%), 88%, p<0.0001 (Carcinogen: AZOXYMETHANE, 25843-45-2, Dose [Inhibitor]: 0, 100 PPM IN DIET FOR 32 WK BEGINNING 1 WK POST CARCINOGEN TREATMENT (STUDY DURATION: 36 WK), Route [Inhibitor]: ORAL, Species: RAT, Strain/Sex: F344/MALE, Target Tissue: Type of Lesion: LARGE INTESTINE: ADENOMA OR ADENOCARCINOMA, Dose [Carcinogen]: 15 MG/KG BW 1/WK FOR 3 WK, Promoter: NONE USED); 4/30 (13%), 4/28 (14%), -7%, not significant (Carcinogen: AZOXYMETHANE, 25843-45-2, Dose [Inhibitor]: 0, 100 PPM IN DIET FOR 32 WK BEGINNING 1 WK POST CARCINOGEN TREATMENT (STUDY DURATION: 36 WK), Route [Inhibitor]: ORAL, Species: RAT, Strain/Sex: F344/MALE, Target Tissue: Type of Lesion: SMALL INTESTINE: ADENOMA OR ADENOCARCINOMA, Dose [Carcinogen]: 15 MG/KG BW 1/WK FOR 3 WK, Promoter: NONE USED); 95%, 89%, 6%, not significant (Carcinogen: DIETHYLNITROSAMINE, 55-18-5, Dose [Inhibitor]: 0, 100 PPM IN DIET FOR 4 WK BEGINNING 1 WK PRIOR TO CARCINOGEN TREATMENT (STUDY DURATION: 24 WK), Route [Inhibitor]: ORAL, Species: RAT, Strain/Sex: F344/MALE, Target Tissue: Type of Lesion: LIVER: HEPATOCELLULAR ADENOMA, Dose [Carcinogen]: 100 MG/KG BW 1/WK FOR 3 WK, Promoter: PHENOBARBITAL, 50-06-6); 70%, 89%, -27%, not significant (Carcinogen: DIETHYLNITROSAMINE, 55-18-5, Dose [Inhibitor]: 0, 100 PPM IN DIET FOR 4 WK BEGINNING 1 WK PRIOR TO CARCINOGEN TREATMENT (STUDY DURATION: 24 WK), Route [Inhibitor]: ORAL, Species: RAT, Strain/Sex: F344/MALE, Target Tissue: Type of Lesion: LIVER: HEPATOCELLULAR CARCINOMA, Dose [Carcinogen]: 100 MG/KG BW 1/WK FOR 3 WK, Promoter: PHENOBARBITAL, 50-06-6). Moreover, the “tumour outcome (control, treated, inhibition, significance)” value runs as follows: (Carcinogen: DIETHYLNITROSAMINE, 55-18-5, Dose [Inhibitor]: 0, 100 PPM IN DIET FOR 20 WK BEGINNING 1 WK POST CARCINOGEN TREATMENT (STUDY DURATION: 24 WK), Route [Inhibitor]: ORAL, Species: RAT, Strain/Sex: F344/MALE, Target Tissue: Type of Lesion: LIVER: HEPATOCELLULAR ADENOMA, Dose [Carcinogen]: 100 MG/KG BW 1/WK FOR 3 WK, Promoter: PHENOBARBITAL, 50-06-6) 95%, 55%, 42%, p<0.005; (Carcinogen: DIETHYLNITROSAMINE, 55-18-5, Dose [Inhibitor]: 0, 100 PPM IN DIET FOR 20 WK BEGINNING 1 WK POST CARCINOGEN TREATMENT (STUDY DURATION: 24 WK), Route [Inhibitor]: ORAL, Species: RAT, Strain/Sex: F344/MALE, Target Tissue: Type of Lesion: LIVER: HEPATOCELLULAR CARCINOMA, Dose [Carcinogen]: 100 MG/KG BW 1/WK FOR 3 WK, Promoter: PHENOBARBITAL, 50-06-6) 70%, 81%, -16%, not significant.
Take `CC(=O)[C@H]1C[C@@H]2C[C@H]1[C@@H](N=C=S)C2`: the “tumour outcome (control, treated, inhibition, significance)” value (Carcinogen: 7,12-DIMETHYLBENZ[A]ANTHRACENE, 57-97-6, Dose [Inhibitor]: 0, 100 UMOL/D IN 0.5 ML EMULPHOR EL-620 FOR 5 CONSECUTIVE DAYS BEGINNING AT 47 D OF AGE (STUDY DURATION: 155 D), Route [Inhibitor]: GAVAGE, Species: RAT, Strain/Sex: SPRAGUE-DAWLEY/FEMALE, Target Tissue: Type of Lesion: MAMMARY GLAND: TUMOR, Dose [Carcinogen]: 8 MG IN 1 ML SESAME OIL ONCE AT 50 D OF AGE, Promoter: NONE USED) is given as 17/25 (68%), 9/19 (47%), 31%, not significant.
